Data as given in patent publication US20240270753A1, “HETEROCYCLIC COMPOUND FOR INHIBITING SHP2 ACTIVITY, PREPARATION METHOD THEREFOR AND USE THEREOF” (SHANGHAI INSTITUTE OF MATERIA MEDICA, CHINESE ACADEMY OF …, priority 2021, published 2024).

How the values were obtained:
MV4-11 cells = test: MV4-11 cell proliferation inhibition assay (MTS); assay type: cell-based; conditions: MTS read on the third day
Experimental: (a) SHP099 and TNO155 were used as positive controls.
(b) MV4-11 cells (10,000 cells/well) were seeded in a 96-well culture plate with 100 μL/well of the culture medium (IMDM supplemented with 10% fetal bovine serum (FBS), from Gibco company), and cultured for 6 hours. The compounds formulated in different concentrations of the present invention were added. On the third day, 20 μL of MTS reagent (purchased from Promega Company) was added to each well, and the absorbance value was detected according to the reagent instructions (Promega Company). The IC50 of the inhibitory activity of the compounds of the present invention against the MV4-11 cell proliferation is shown in Table 2.

[1] = system: p-ERK 1/2 (Thr202/Tyr204) in MIAPaca-2 cells; test: Cell protein kinase (p-ERK) phosphorylation inhibition, AlphaLISA; assay type: cell-based; conditions: treated for 2 hours
Experimental: The inhibition of the phosphorylation level of intracellular protein kinase (ERK) by a compound was detected by AlphaLISA method. The first step was to treat the cells with the compound. The compound to be tested was first diluted 5-fold with 100% DMSO, and a gradient including a total of 9 different concentrations was set; then MIAPaca-2 cells were inoculated into a 96-well plate at a density of 40,000 cells per well, with a volume of 80 μL per well; then 20 μL of DMSO or the compound to be tested with different concentrations was added to each well, with 2 replicates for each concentration, and the final concentration of DMSO was controlled at 0.5%. The second step was to lyse the cells. After the cells were treated for 2 hours, the culture medium was removed, and the cells were washed three times with a HBSS solution. 50 μL of a freshly prepared lysis buffer was added to each well, shaken, and left at room temperature for 10 minutes. […] 10 μL of the above lysate was put into a 384-well plate (Perkin Elmer, 6005350), and the phosphorylation level of the extracellular signal-regulated kinase in the sample was detected according to the manufacturer's instructions. Signals were read using the AlphaScreen detector on an Envision multifunctional microplate reader (PerkinElmer). The inhibition (%) was calculated by the following equation: […]

SMILES	IC50 (MV4-11 cells)	IC50 [1]
CC1(N)CCN(c2cnc(-c3cccc(Cl)c3Cl)c(N)n2)CC1 [SHP099]	883 ± 105 nM	–
C[C@@H]1OCC2(CCN(c3cnc(Sc4ccnc(N)c4Cl)c(N)n3)CC2)[C@@H]1N [TNO155]	118 ± 5.8 nM	30 nM
